Results published in patent publication US20040023994A1 (priority 2002, published 2004).
Where two headings read alike, the source gives them in different places.

What was measured:
[1] = test system: K-562; details: K-562, Leukemia, NCI database, cited from earlier work; for CC50: read-out: LC50 (the source's name)
[2] = test system: PC-3; details: PC-3, Prostate, NCI database, cited from earlier work; for CC50: read-out: LC50 (the source's name)
[3] = test system: NCI/ADR-RES; details: Breast, NCI database, cited from earlier work; for CC50: read-out: LC50 (the source's name)
[4] = test system: HS 578T; details: Breast, NCI database, cited from earlier work; for CC50: read-out: LC50 (the source's name)
[5] = test system: TK-10; details: TK-10, Renal, NCI database, cited from earlier work; for CC50: read-out: LC50 (the source's name)
[6] = test system: CAKI-1; details: CAKI-1, Renal, NCI database, cited from earlier work; for CC50: read-out: LC50 (the source's name)
[7] = test system: RPMI-8226; details: RPMI-8226, Leukemia, NCI database, cited from earlier work; for CC50: read-out: LC50 (the source's name)
[8] = test system: COLO 205; details: COLO 205, Colon, NCI database, cited from earlier work; for CC50: read-out: LC50 (the source's name)
[9] = test system: MDA-MB-231/ATCC; details: Breast, NCI database, cited from earlier work; for CC50: read-out: LC50 (the source's name)
[10] = test system: SF-539; details: SF-539, CNS, NCI database, cited from earlier work; for CC50: read-out: LC50 (the source's name)
[11] = test system: SF-295; details: SF-295, CNS, NCI database, cited from earlier work; for CC50: read-out: LC50 (the source's name)
[12] = test system: SK-OV-3; details: SK-OV-3, Ovarian, NCI database, cited from earlier work; for CC50: read-out: LC50 (the source's name)
[13] = test system: UO-31; details: UO-31, Renal, NCI database, cited from earlier work; for CC50: read-out: LC50 (the source's name)
[14] = test system: SW-620; details: SW-620, Colon, NCI database, cited from earlier work; for CC50: read-out: LC50 (the source's name)
[15] = test system: KM12; details: KM12, Colon, 48 h
[16] = test system: NCI-H23; format: cell-based; details: NCI-H23, Non-Small Cell Lung, 48 h
[17] = test system: NCI-H460; details: NCI-H460, Non-Small Cell Lung, 48 h
[18] = test system: SF-539; details: SF-539, CNS, 48 h
[19] = test system: SR
[20] = test system: OVCAR-4; details: OVCAR-4, Ovarian, 48 h
[21] = test system: UACC-62; details: UACC-62, Melanoma, 48 h
[22] = test system: MOLT-4; details: MOLT-4, Leukemia, 48 h
[23] = test system: OVCAR-3; details: OVCAR-3, Ovarian, 48 h
[24] = test system: HOP-62; details: HOP-62, Non-Small Cell Lung, 48 h
[25] = test system: LOX IMVI
[26] = test system: HL-60(TB)
[27] = test system: CCRF-CEM

Q: Which results are given for `Nc1nc2nc[nH]c2c(=S)[nH]1` [6-TG, 6-thioguanine]?
A: GI50 [1]: 0.4 µM; TGI [1]: 70.8 µM; CC50 [1]: > 100 µM; GI50 [2]: 1.77 µM; TGI [2]: >100 µM; CC50 [2]: > 100 µM; CC50 [3]: > 100 µM; GI50 [3]: 0.59 µM; TGI [3]: 35.6 µM; CC50 [4]: > 100 µM; GI50 [4]: 7.26 µM; TGI [4]: >100 µM; GI50 [5]: 1.04 µM; TGI [5]: 78.3 µM; CC50 [5]: > 100 µM; GI50 [6]: 0.53 µM; TGI [6]: 15.6 µM; CC50 [6]: > 100 µM; GI50 [7]: 0.39 µM; TGI [7]: 20.9 µM; CC50 [7]: > 100 µM; GI50 [8]: 1.67 µM; TGI [8]: 8.75 µM; CC50 [8]: 34.5 µM; CC50 [9]: > 100 µM; GI50 [9]: 1.94 µM; TGI [9]: >100 µM; GI50 [10]: 1.02 µM; TGI [10]: 68.4 µM; CC50 [10]: > 100 µM; GI50 [11]: 1.02 µM; TGI [11]: >100 µM; CC50 [11]: > 100 µM; GI50 [12]: 0.54 µM; TGI [12]: 16.4 µM; CC50 [12]: > 100 µM; GI50 [13]: 1.48 µM; TGI [13]: 32.3 µM; CC50 [13]: > 100 µM; GI50 [14]: 1.52 µM; TGI [14]: >100 µM; CC50 [14]: > 100 µM

Q: For `Sc1ncnc2nc[nH]c12` [6-MP, 6-mercaptopurine], which GI50 [1] is on record?
A: 0.35 µM

Q: And the TGI [1]?
A: >100 µM

Q: And the CC50 [1]?
A: > 100 µM

Q: And the GI50 [2]?
A: 3.81 µM

Q: What about the TGI [2] of the same compound?
A: >100 µM

Q: And the CC50 [2]?
A: > 100 µM

Q: And the CC50 [3]?
A: > 100 µM

Q: And the GI50 [3]?
A: 3.18 µM

Q: And the TGI [3]?
A: >100 µM

Q: And the CC50 [4]?
A: > 100 µM

Q: And the GI50 [4]?
A: 15.7 µM

Q: And the TGI [4]?
A: >100 µM

Q: And the GI50 [5]?
A: 1.83 µM

Q: What about the TGI [5] of the same compound?
A: >100 µM

Q: And the CC50 [5]?
A: > 100 µM

Q: And the GI50 [6]?
A: 2.36 µM

Q: And the TGI [6]?
A: >100 µM

Q: What about the CC50 [6] of the same compound?
A: > 100 µM

Q: And the GI50 [7]?
A: 1.75 µM

Q: And the TGI [7]?
A: >100 µM

Q: And the CC50 [7]?
A: > 100 µM

Q: And the GI50 [8]?
A: 4.68 µM

Q: And the TGI [8]?
A: >100 µM

Q: And the CC50 [8]?
A: > 100 µM

Q: What about the CC50 [9] of the same compound?
A: > 100 µM

Q: What about the GI50 [9] of the same compound?
A: 16.4 µM

Q: And the TGI [9]?
A: >100 µM

Q: What about the GI50 [10] of the same compound?
A: 2.38 µM

Q: And the TGI [10]?
A: >100 µM

Q: And the CC50 [10]?
A: > 100 µM

Q: What about the GI50 [11] of the same compound?
A: 5.36 µM

Q: And the TGI [11]?
A: >100 µM

Q: What about the CC50 [11] of the same compound?
A: > 100 µM

Q: And the GI50 [12]?
A: 0.97 µM

Q: What about the TGI [12] of the same compound?
A: >100 µM

Q: And the CC50 [12]?
A: > 100 µM

Q: What about the GI50 [13] of the same compound?
A: 6.52 µM

Q: What about the TGI [13] of the same compound?
A: >100 µM

Q: And the CC50 [13]?
A: > 100 µM

Q: And the GI50 [14]?
A: 6.82 µM

Q: And the TGI [14]?
A: >100 µM

Q: What about the CC50 [14] of the same compound?
A: > 100 µM

Q: What does the source list for `CC(=O)C=CSc1nc(N)nc2nc[nH]c12` [trans-AVTG, 6-(2-acetylvinylthio) guanine]?
A: GI50 [15]: 2.71 µM; TGI [15]: 13.0 µM; CC50 ([15]; read-out: LC50): 64.8 µM; GI50 [16]: 3.05 µM; TGI [16]: 16.3 µM; GI50 [17]: 0.59 µM; TGI [17]: 3.57 µM; CC50 ([17]; read-out: LC50): 49.4 µM; GI50 [18]: 0.81 µM; TGI [18]: 16.3 µM; CC50 ([18]; read-out: LC50): > 100 µM; GI50 ([19]; Leukemia, 48 h): 0.09 µM; TGI ([19]; Leukemia, 48 h): 10.2 µM; CC50 ([19]; read-out: LC50, Leukemia, 48 h): > 100 µM; GI50 [20]: 2.46 µM; TGI [20]: 17.0 µM; CC50 ([20]; read-out: LC50): 45.1 µM; GI50 [21]: 0.28 µM; TGI [21]: 0.93 µM; CC50 ([21]; read-out: LC50): 24.9 µM; GI50 [22]: 0.7 µM; TGI [22]: >100 µM; CC50 ([22]; read-out: LC50): > 100 µM; GI50 [23]: 0.24 µM; TGI [23]: 0.63 µM; CC50 ([23]; read-out: LC50): 12.1 µM; GI50 [24]: 1.62 µM; TGI [24]: >100 µM; CC50 ([24]; read-out: LC50): > 100 µM; GI50 ([25]; Melanoma, 48 h): 0.2 µM; TGI ([25]; Melanoma, 48 h): 2.39 µM; CC50 ([25]; read-out: LC50, Melanoma, 48 h): 82.5 µM; GI50 ([26]; Leukemia, 48 h): 3.77 µM; TGI ([26]; Leukemia, 48 h): 16.6 µM; CC50 ([26]; read-out: LC50, Leukemia, 48 h): > 100 µM; GI50 ([27]; Leukemia, 48 h): 0.14 µM; TGI ([27]; Leukemia, 48 h): 1.83 µM; CC50 ([27]; read-out: LC50, Leukemia, 48 h): 54.8 µM
